Test results published in patent publication US20260347364A1, “PYRAZOLO[4,3-F]QUINAZOLINE DERIVATIVES AS MODULATORS OF G12D MUTANT KRAS USEFUL FOR THE TREATMENT OF CANCER” (JAZZ PHARMACEUTICALS IRELAND LTD., priority 2023, published 2026).

Tests used:
KRAS G12D = biological target: T1, KRAS G12D (Homo sapiens, UniProt P01116, G12D); test: HTRF nucleotide exchange assay, KRAS G12D; format: biochemical; conditions: HTRF nucleotide exchange assay (NEA), class symbols
T1 construct: aa1-188 KRAS WT, HRAS WT, NRAS WT, or KRAS containing the G12D
T1 sequence (P01116 1-188 isoform P01116-2 G12D): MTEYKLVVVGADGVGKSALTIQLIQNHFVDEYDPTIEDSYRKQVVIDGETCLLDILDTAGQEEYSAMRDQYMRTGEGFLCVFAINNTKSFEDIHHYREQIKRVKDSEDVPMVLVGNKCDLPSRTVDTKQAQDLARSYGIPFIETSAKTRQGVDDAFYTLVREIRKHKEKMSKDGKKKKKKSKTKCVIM

KRAS G12V = biological target: T2, KRAS G12V (Homo sapiens, UniProt P01116, G12V); test: HTRF nucleotide exchange assay, KRAS G12V; format: biochemical; conditions: HTRF nucleotide exchange assay (NEA), class symbols
T2 construct: 4 nM KRAS; aa1-188 containing the G12V, G12C, G12A or G12S amino acid substitution
T2 sequence (P01116 1-188 isoform P01116-2 G12V): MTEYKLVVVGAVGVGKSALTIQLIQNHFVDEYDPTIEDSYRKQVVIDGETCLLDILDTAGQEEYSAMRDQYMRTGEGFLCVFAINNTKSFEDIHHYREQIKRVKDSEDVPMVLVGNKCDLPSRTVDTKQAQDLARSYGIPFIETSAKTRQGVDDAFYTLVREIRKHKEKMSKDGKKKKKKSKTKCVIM
Method: (§1) HTRF Nucleotide Exchange Assay Method
The capacity of compounds to bind KRAS G12D, other KRAS mutants and wildtype RAS isoforms was quantified using a HTRF nucleotide exchange assay. Recombinant human RAS protein (2 nM; aa1-188 KRAS WT, HRAS WT, NRAS WT, or KRAS containing the G12D, G13D or Q61H amino acid substitutions, or 4 nM KRAS; aa1-188 containing the G12V, G12C, G12A or G12S amino acid substitution, an N-terminal 6× His-tag and leader sequence), and 2 nM Europium-labeled anti-6× His antibody were mixed in assay buffer (10 mM HEPES pH 7.3, 150 mM NaCl, 5 mM MgCl2, 0.05% BSA, 0.0025% NP-40 and 100 mM KF) with various concentrations of compound in a 384-well plate and a volume of 5 μL. After a 60-minute incubation at room temperature, 5 μl of 200 nM EDA-GTP-DY647P1 (diluted in assay buffer) was added to the plate. Following 30-minute incubation at room temperature, time-resolved fluorescence was measured on a PerkinElmer Envision plate reader. DMSO (0.3%) and unlabeled GDP (1 μM) or equivalent tool compound were used to generate the Max and Min assay signals, respectively. Data was analysed using a four-parameter logistic model to calculate IC50 values, with at least two independent replicates were performed for each compound. The results are presented as IC50s in Table 29 where “A” corresponds to an IC50 ≤10 nM, “B” to an IC50 >10 nM up to 100 nM, “C” is >100 nM up to 10 μM, “D” represents <49% inhibition at 10 μM and ND=not determined: […]

KRAS G12A = biological target: T3, KRAS G12A (Homo sapiens, UniProt P01116, G12A); test: HTRF nucleotide exchange assay, KRAS G12A; format: biochemical; conditions: HTRF nucleotide exchange assay (NEA), class symbols
T3 construct: 4 nM KRAS; aa1-188 containing the G12V, G12C, G12A or G12S amino acid substitution
T3 sequence (P01116 1-188 isoform P01116-2 G12A): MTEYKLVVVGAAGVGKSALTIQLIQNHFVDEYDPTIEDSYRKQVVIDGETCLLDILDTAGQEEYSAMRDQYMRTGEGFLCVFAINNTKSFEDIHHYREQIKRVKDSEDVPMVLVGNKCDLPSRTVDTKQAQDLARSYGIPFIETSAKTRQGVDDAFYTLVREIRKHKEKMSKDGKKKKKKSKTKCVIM
Method: as §1
(§2) The capacity of compounds to bind KRAS G12D, other KRAS mutants and wildtype RAS isoforms was quantified using a HTRF nucleotide exchange assay. Recombinant human RAS protein (2 nM; aa1-188 KRAS WT, HRAS WT, NRAS WT, or KRAS containing the G12D, G13D or Q61H amino acid substitutions, or 4 nM KRAS; aa1-188 containing the G12V, G12C, G12A or G12S amino acid substitution, an N-terminal 6× His-tag and leader sequence), and 2 nM Europium-labeled anti-6× His antibody were mixed in assay buffer (10 mM HEPES pH 7.3, 150 mM NaCl, 5 mM MgCl2, 0.05% BSA, 0.0025% NP-40 and 100 mM KF) with various concentrations of compound in a 384-well plate and a volume of 5 μL. After a 60-minute incubation at room temperature, 5 μl of 200 nM EDA-GTP-DY647P1 (diluted in assay buffer) was added to the plate. Following 30-minute incubation at room temperature, time-resolved fluorescence was measured on a PerkinElmer Envision plate reader. DMSO (0.3%) and unlabeled GDP (1 μM) or equivalent tool compound were used to generate the Max and Min assay signals, respectively. Data was analysed using a four-parameter logistic model to calculate IC50 values, with at least two independent replicates were performed for each compound. […]

KRAS G12S = biological target: T4, KRAS G12S (Homo sapiens, UniProt P01116, G12S); test: HTRF nucleotide exchange assay, KRAS G12S; format: biochemical; conditions: HTRF nucleotide exchange assay (NEA), class symbols
T4 construct: 4 nM KRAS; aa1-188 containing the G12V, G12C, G12A or G12S amino acid substitution
T4 sequence (P01116 1-188 isoform P01116-2 G12S): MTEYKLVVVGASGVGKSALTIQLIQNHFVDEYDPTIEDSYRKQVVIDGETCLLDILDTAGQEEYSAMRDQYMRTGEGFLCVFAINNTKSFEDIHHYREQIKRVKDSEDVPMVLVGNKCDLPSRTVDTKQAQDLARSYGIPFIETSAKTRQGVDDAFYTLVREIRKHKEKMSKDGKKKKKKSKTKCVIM
Method: as §1, §2

KRAS WT = biological target: T5, KRAS WT (Homo sapiens, UniProt P01116); test: HTRF nucleotide exchange assay, KRAS WT; format: biochemical; conditions: HTRF nucleotide exchange assay (NEA), class symbols
T5 construct: aa1-188 KRAS WT
T5 sequence (P01116 1-188 isoform P01116-2): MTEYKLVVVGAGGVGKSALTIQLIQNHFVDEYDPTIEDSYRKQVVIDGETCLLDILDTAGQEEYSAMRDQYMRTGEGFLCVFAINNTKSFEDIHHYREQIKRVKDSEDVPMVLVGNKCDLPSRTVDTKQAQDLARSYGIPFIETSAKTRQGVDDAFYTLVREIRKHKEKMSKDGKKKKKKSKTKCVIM

[1] = Metabolic stability in human liver hepatocytes (substrate depletion, intrinsic clearance); format: in vitro ADME; conditions: 37° C., Williams E Media, LC-MS/MS depletion
Source text: Determining the in vitro metabolic stability of a new chemical entity (NCE) is a very useful tool within drug discovery. A metabolic stability study will determine the in vitro intrinsic clearance (CLint) of a compound. The CLint value represents a measure of enzyme activity toward an NCE and is independent of other physiological factors such as blood flow. Determination of CLint within drug discovery helps to identify metabolic liabilities within a compound series, and ultimately assist in the identification of compounds with improved metabolic stability. The CLint value determined in vitro can be used to predict in vivo clearance (using species specific scaling factors) in pre-clinical species and ultimately in human. The liver is the primary organ involved in drug metabolism, of which there are two pathways-Phase I and Phase II. Phase I metabolism is primarily oxidative with the majority of these oxidations catalysed by cytochrome P450 enzymes (CYPs) which are located in the smooth endoplasmic reticulum (ER) in the liver. Phase II metabolism is catalysed by various conjugative enzymes which are located mainly in the ER and the cytosol. The in vitro systems used to study drug metabolism are mainly subcellular fractions such as liver microsomes or whole cells (hepatocytes) isolated from the liver. Hepatocytes, being whole cells, contain both Phase I and Phase II metabolizing enzymes and produce their own cofactors. This assay determines the metabolic stability of test compounds in human liver hepatocytes using the substrate depletion approach. The lower limit of the assay is a T1/2 >462 min and a CLint […]. Therefore the upper limit of the assay is 277 μL/min/106 cells. Any CLint value higher than this should be given an out of range value. Hepatocytes were plated in Williams E Media with added L-glutamine, compounds were added as 1 mM DMSO solution and incubated at 37° C. Compound depletion was measured by LC-MS/MS at multiple time points following quenching with cold acetonitrile. CLint was calculated from the following equation:
CLint(μl/min/106cells)=(In(2)/T1/2)*1000/cell density(10^6cells/mL)

| Compound | IC50 (KRAS G12D) [nM] | IC50 (KRAS G12V) [nM] | IC50 (KRAS G12A) [nM] | IC50 (KRAS G12S) [nM] | IC50 (KRAS WT) [nM] | hepatocyte CLint [1] [µL/min/1e6 cells] |
| --- | --- | --- | --- | --- | --- | --- |
| CCc1c(F)ccc2cc(O)cc(-c3c(C)c4nc(OC[C@@]56CCCN5C[C@H](F)C6)nc(N5CCOCC(C)(O)C5)c4c4cn(C)nc34)c12 (mixture of isomers) [Example 105, 4-[4-(8-ethyl-7-fluoro-3-hydroxy-1-naphthyl)-2,5-dimethyl-7-[rac-(2R)-2-fluoro-1,2,3,5,6,7-hexahydropyrrolizin-8-yl]methoxy]pyrazolo[4,3-f]quinazolin-9-yl]-6-methyl-1,4-oxazepan-6-ol] | ≤ 10 | ≤ 10 | ≤ 10 | 10 to 100 | ≤ 10 |  |
| CCc1c(F)ccc2cc(O)cc(-c3cc4nc(OC[C@@]56CCCN5C[C@H](F)C6)nc(N5CCCC(C)(O)C5)c4c4cn(C)nc34)c12 (mixture of isomers) [Example 7, 1-[4-(8-ethyl-7-fluoro-3-hydroxy-1-naphthyl)-2-methyl-7-[[rac-(2R,8S)-2-fluoro-1,2,3,5,6,7-hexahydropyrrolizin-8-yl]methoxy]pyrazolo[4,3-f]quinazolin-9-yl]-3-methyl-piperidin-3-ol] | ≤ 10 | ≤ 10 |  |  | ≤ 10 |  |
| CCc1c(F)ccc2cc(O)cc(-c3cc4nc(OC[C@@]56CCCN5C[C@H](F)C6)nc(N5CC6CCC5CN6)c4c4cn(C)nc34)c12 (stereo partly drawn) [Example 14, 4-[9-(2,5-diazabicyclo[2.2.2]octan-2-yl)-2-methyl-7-[[(2R,8S)-2-fluoro-1,2,3,5,6,7-hexahydropyrrolizin-8-yl]methoxy]pyrazolo[4,3-f]quinazolin-4-yl]-5-ethyl-6-fluoro-naphthalen-2-ol] | ≤ 10 | 10 to 100 |  |  | 100 to 10000 |  |
| CCc1c(F)ccc2cc(O)cc(-c3cc4nc(OC[C@@]56CCCN5C[C@H](F)C6)nc(N5CCCOCC5)c4c4cn(C)nc34)c12 [Example 1, 5-ethyl-6-fluoro-4-[2-methyl-9-(1,4-oxazepan-4-yl)-7-[[(2R,8S)-2-fluoro-1,2,3,5,6,7-hexahydropyrrolizin-8-yl]methoxy]pyrazolo[4,3-f]quinazolin-4-yl]naphthalen-2-ol] | ≤ 10 | 10 to 100 | ≤ 10 | 10 to 100 | ≤ 10 | 73.3 |
